Test results from patent publication US8058269B2, “Oxindole derivatives” (Hoffman-La Roche Inc., priority 2006, dated 2011).

Molecular target: interaction between p53 and MDM2 proteins (Homo sapiens, UniProt Q00987)
Experiment: HTRF assay of inhibition of the p53-MDM2 interaction (GST-MDM2 / biotinylated p53 peptide)
Assay type: binding
Settings: recombinant GST-tagged MDM2 and biotinylated p53 peptide, 0.02% BSA
Protocol: In a […], the ability of the compounds to inhibit the interaction between p53 and MDM2 proteins was measured. The ability of the compounds to inhibit the interaction between p53 and MDM2 proteins was measured by an HTRF (homogeneous time-resolved fluorescence) assay in which recombinant GST-tagged MDM2 binds to a peptide that resembles the MDM2-interacting region of p53 (Lane et al.). Binding of GST-MDM2 protein and p53-peptide (biotinylated on its N-terminal end) is registered by the FRET (fluorescence resonance energy transfer) between Europium (Eu)-labeled anti-GST antibody and streptavidin-conjugated Allophycocyanin (APC). […]

interaction between p53 and MDM2 proteins, sequence (Q00987 whole entry): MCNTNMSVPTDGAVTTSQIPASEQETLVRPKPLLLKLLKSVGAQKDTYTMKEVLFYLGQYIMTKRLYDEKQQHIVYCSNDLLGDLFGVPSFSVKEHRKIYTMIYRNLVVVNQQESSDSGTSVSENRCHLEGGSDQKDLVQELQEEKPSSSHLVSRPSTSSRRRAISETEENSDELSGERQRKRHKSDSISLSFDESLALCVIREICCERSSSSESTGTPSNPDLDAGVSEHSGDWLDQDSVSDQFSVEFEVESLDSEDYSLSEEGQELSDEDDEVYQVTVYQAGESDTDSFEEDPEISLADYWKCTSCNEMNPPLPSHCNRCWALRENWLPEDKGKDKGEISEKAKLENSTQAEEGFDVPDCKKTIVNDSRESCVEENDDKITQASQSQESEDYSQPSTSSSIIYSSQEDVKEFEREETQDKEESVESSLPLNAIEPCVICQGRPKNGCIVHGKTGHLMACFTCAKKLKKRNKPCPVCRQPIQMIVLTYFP

SMILES | IC50 [nM]
O=C1Nc2cc(Cl)ccc2C1(Cc1cccc(Cl)c1)Nc1ccc(Br)cc1F (racemic) [Example 11, rac-3-(4-bromo-2-fluoro-phenylamino)-6-chloro-3-(3-chloro-benzyl)-1,3-dihydro-indol-2-one] | 3.73
O=C1Nc2cc(Cl)ccc2C1(Cc1cccc(Cl)c1)Nc1cccc(OC(F)F)c1 (racemic) [Example 19, rac-6-chloro-3-(3-chloro-benzyl)-3-(3-difluoromethoxy-phenylamino)-1,3-dihydro-indol-2-one] | 2.56
O=C1Nc2cc(Cl)ccc2C1(Cc1cccc(Cl)c1)NC1CCC1 (racemic) [Example 49, rac-6-chloro-3-(3-chloro-benzyl)-3-cyclobutylamino-1,3-dihydro-indol-2-one] | 2.54
O=C1Nc2cc(Cl)ccc2C1(Cc1cccc(Cl)c1)N1CCCC(O)C1 (racemic) [Example 62, rac-6-chloro-3-(3-chloro-benzyl)-3-(3-hydroxy-piperidin-1-yl)-1,3-dihydro-indol-2-one] | 3.68
